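Results reflect a 48-hour exposure of cells in 96-well plates to compound at five concentrations. The concentration for full growth arrest is given as TGI.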
Columns and labels:
Assay in all cases: NCI-60 cell line screen, 48 h
MDA-MB-435 = tested on: MDA-MB-435
UACC-62 melanoma = tested on: UACC-62 melanoma
COLO 205 colon = tested on: COLO 205 colon
SF-539 CNS = tested on: SF-539 CNS
ACHN renal = tested on: ACHN renal
CAKI-1 renal = tested on: CAKI-1 renal
LOX IMVI melanoma = tested on: LOX IMVI melanoma
MDA-N = tested on: MDA-N
PC-3 prostate = tested on: PC-3 prostate
MALME-3M melanoma = tested on: MALME-3M melanoma
M14 melanoma = tested on: M14 melanoma
HCT-15 colon = tested on: HCT-15 colon
KM12 colon = tested on: KM12 colon
SK-MEL-2 melanoma = tested on: SK-MEL-2 melanoma
HL-60(TB) leukemia = tested on: HL-60(TB) leukemia
HT29 colon = tested on: HT29 colon
SNB-19 CNS = tested on: SNB-19 CNS

Row | SMILES | TGI (MDA-MB-435) [µM] | TGI (UACC-62 melanoma) [µM] | TGI (COLO 205 colon) [µM] | TGI (SF-539 CNS) [µM] | TGI (ACHN renal) [µM] | TGI (CAKI-1 renal) [µM] | TGI (LOX IMVI melanoma) [µM] | TGI (MDA-N) [µM] | TGI (PC-3 prostate) [µM] | TGI (MALME-3M melanoma) [µM] | TGI (M14 melanoma) [µM] | TGI (HCT-15 colon) [µM] | TGI (KM12 colon) [µM] | TGI (SK-MEL-2 melanoma) [µM] | TGI (HL-60(TB) leukemia) [µM] | TGI (HT29 colon) [µM] | TGI (SNB-19 CNS) [µM]
1 | CCC(C)C(N)C(=O)N/N=C\c1c2c(nc3ccccc13)-c1cc3c(c(=O)n1C2)COC(=O)[C@]3(O)CC (some centres not stated) | > 81 | 0.106 | > 51.6 | 0.0223 | 0.575 | 65.5 | 1.08 | > 100 | > 100 | 19.7 | 1.6 | > 100 | > 22.5 | 6.59 | 0.68 | > 100 | 0.69
2 | COc1cc(C2c3cc4c(cc3OC(NNS(=O)(=O)c3ccc(C)cc3)C2C)OCO4)cc(OC)c1OC (configuration not stated) | 2.25 | 20.3 | 16.8 | 3.96 | > 52 | 23.9 | > 100 | 2.01 | > 72.5 | > 60.8 | 14.5 | > 22.8 | 32.3 | 36.9 | 6.59 | 5.38 | > 49.1
3 | C[C@@H](C[C@H]1OC(C)(C)O[C@@H]1C(C)(C)O)[C@H]1CC=C2[C@]3(C)[C@H](O)C[C@H]4C(C)(C)[C@H](O)CC[C@]4(C)[C@H]3CC[C@]21C | 17.7 | 34 | 10.5 | 17.2 | 15.8 | 19.5 | 17.3 | 16.8 | 14.6 | 26.3 | 17.6 | 14.9 | 16 | 24.7 | 7.88 | 8.23 | 20.7
4 | COc1c2c(nc3ccccc13)-c1cc(C(CC(=O)OC(C)(C)C)C(=O)OC(C)C)c(CO)c(=O)n1C2 (configuration not stated) | > 100 | 98.3 | > 100 | 98.4 | > 100 | > 100 | > 100 | > 100 | > 100 | > 100 | > 100 | > 100 | > 100 | > 100 | > 100 | > 100 | > 100
5 | CO/N=C\c1ccc2c(c1)Sc1ccccc1O2 | > 100 | > 100 | > 100 | > 100 | > 100 | > 100 | > 100 | > 100 | > 100 | > 100 | > 100 | > 100 | > 100 | > 100 | > 100 | > 100 | > 100
6 | CC(C)(C)C(=O)Oc1ccc(/C=C/C(=O)c2ccc(OC(=O)C(C)(C)C)cc2)cc1 | > 100 | > 100 | > 100 | > 100 | > 100 | 96.7 | > 100 | > 100 | > 100 | > 100 | > 100 | > 100 | 38.5 | > 100 | 75.5 | > 100 | > 100
7 | N#CC1=C(N)N(/N=C/c2ccccc2)C(c2ccccc2)C1(C#N)C#N (configuration not stated) | 33.7 | 29.5 | 4.82 | 33.9 | 14.9 | 13 | 14.6 | 30.5 | 34.5 | 4.39 | 42.8 | 18.7 | > 58.2 | 34.9 | 5.47 | 15.7 | > 54.6
8 | O=C(Cn1cc(Br)c(=O)[nH]c1=O)c1ccc(-c2ccccc2)cc1 | > 55.3 | > 100 | > 49.6 | > 19.8 | > 100 | > 41.8 | > 27.4 | > 100 | > 45.9 | > 100 | > 24.1 | 39.7 | > 26.3 | > 17.3 | > 35.1 | > 100 | 13.2
9 | N#Cc1c(Cl)c2cccnc2n2c1nc1ccccc12 | 13.5 | 9.1 | 4.02 | 5.4 | 3.2 | 3.71 | 3.51 | 15.7 | 6.23 | 3.28 | > 21.4 | 3.82 | 20.3 | 23.3 | 3.78 | 3.61 | 38.5
10 | Cc1ccc(O)c(C2=CC3=NNC(=O)C3C(c3cccc(Cl)c3)C2)c1 (configuration not stated) | > 100 | 86.6 | 30.4 | > 100 | > 100 | > 100 | 49.1 | 92.2 | > 100 | 94 | > 100 | > 100 | 55.1 | 86.2 | > 100 | 63.9 | > 100
11 | COc1ccc(-c2c(-c3ccccc3)c(C)c3ccccn23)cc1 | > 100 | > 100 | > 100 | > 100 | > 100 | > 100 | > 100 | > 100 | > 100 | > 100 | > 100 | > 100 | > 100 | > 100 | > 100 | > 100 | > 100
12 | COc1ccc(-c2oc3cc(OC)c(OC)c(O)c3c(=O)c2OC)cc1 | > 100 | 84.4 | > 100 | > 100 | > 100 | > 100 | > 100 | > 100 | > 100 | > 100 | > 100 | > 100 | > 100 | > 100 | > 100 | > 100 | > 100
13 | Cc1cccc2oc3c(c(=O)c12)CC(O)C(C)(C)O3 (configuration not stated) | > 100 | > 100 | > 100 | > 100 | > 100 | > 100 | > 100 | > 100 | > 100 | > 100 | > 100 | > 100 | > 100 | > 100 | 48.3 | > 100 | > 100
14 | C=C1C[C@@H](O)[C@@H](Br)C(C)(C)[C@@]12C=CC(=O)CC2 | > 100 | > 100 | 4.34 | > 100 | > 100 | > 100 | > 100 | > 100 | 7.97 | > 100 | > 100 | > 100 | 5.31 | > 100 | > 100 | > 100 | > 100
15 | c1ccc2cc3c(NC4=NCCO4)cccc3cc2c1 | 98.8 | > 100 | > 100 | > 100 | > 100 | > 100 | 95 | 3.57 | > 100 | > 100 | > 100 | > 100 | > 100 | > 100 | 52.1 | 80.4 | > 100
16 | O=[N+]([O-])C(/C(Cl)=C(\Cl)Br)=C(/Cl)SCc1ccccc1 | 3.79 | 16.5 | 4.86 | 25.5 | 8.64 | 3.78 | 3.95 | 4.09 | 14.3 | 18.7 | 9.15 | 8.53 | 30 | 18.1 | 2.18 | 5.54 | 38.8
17 | Cc1ccc(-c2c(-c3ccccc3)[nH]c(C)c2C(=O)ONC(=O)c2ccccc2)cc1 | 5.49 | 22.2 | 25.7 | 8.06 | 4.15 | 5.48 | 4.45 | 6.12 | 18.7 | 24.7 | 18 | 24.1 | 26.4 | 16.2 | 2.02 | > 42.4 | 20.1
18 | N#Cc1c2ccc([N+](=O)[O-])cc2c(=O)n2c1[nH]c1ccc(C(F)(F)F)cc12 | > 100 | > 100 | > 46.3 | > 100 | > 100 | > 100 | 45.6 | > 100 | > 100 | > 100 | > 100 | > 100 | > 100 | > 100 | > 100 | > 47.4 | > 100
19 | CC[C@@H](CCCCC1CC[C@H]2CC(=O)C[C@@H]12)OC (some centres not stated) | > 100 | > 100 | > 100 | > 100 | > 100 | > 100 | > 100 | > 100 | > 100 | > 100 | > 100 | > 100 | > 100 | > 100 | > 100 | > 100 | > 100
20 | COc1cc(/C=C2\C[C@H]3[C@@H]4CCC5=CC(=O)CC[C@]5(C)[C@H]4CC[C@]3(C)C2=O)cc(OC)c1OC | > 39.4 | > 51.4 | > 60.6 | > 100 | > 100 | > 65.2 | > 100 | > 63.6 | > 43.2 | > 100 | > 42.5 | > 100 | > 37.2 | > 59.8 | 7.55 | > 100 | > 100
21 | CC12CCCCC1=C(F)C(F)(F)S2 (configuration not stated) | > 86.6 | > 100 | 40.2 | > 100 | 51.6 | 48.9 | 82.6 | > 46.4 | > 87.2 | 58.6 | > 83.6 | 76.7 | > 100 | > 100 | 15.3 | 56.5 | > 100

From PubChem BioAssay (NCI)
